Laboratory results reported in patent US9862707B2, “TrkA kinase inhibitors, compositions and methods thereof” (Merck Sharp & Dohme Corp., priority 2014, dated 2018).

Biological target: human TrkA receptor (Homo sapiens (Human), UniProt P04629)
Assay: TrkA functional activity, DiscoverX PathHunter assay
Assay type: cell-based
Conditions: U2OS cells expressing human TrkA-PK, Shc1-EA and p75NTR; compound 1 h, then NGF at ~80% of maximal response for 3 h; luminescence

Chain of human TrkA receptor (P04629 33-796): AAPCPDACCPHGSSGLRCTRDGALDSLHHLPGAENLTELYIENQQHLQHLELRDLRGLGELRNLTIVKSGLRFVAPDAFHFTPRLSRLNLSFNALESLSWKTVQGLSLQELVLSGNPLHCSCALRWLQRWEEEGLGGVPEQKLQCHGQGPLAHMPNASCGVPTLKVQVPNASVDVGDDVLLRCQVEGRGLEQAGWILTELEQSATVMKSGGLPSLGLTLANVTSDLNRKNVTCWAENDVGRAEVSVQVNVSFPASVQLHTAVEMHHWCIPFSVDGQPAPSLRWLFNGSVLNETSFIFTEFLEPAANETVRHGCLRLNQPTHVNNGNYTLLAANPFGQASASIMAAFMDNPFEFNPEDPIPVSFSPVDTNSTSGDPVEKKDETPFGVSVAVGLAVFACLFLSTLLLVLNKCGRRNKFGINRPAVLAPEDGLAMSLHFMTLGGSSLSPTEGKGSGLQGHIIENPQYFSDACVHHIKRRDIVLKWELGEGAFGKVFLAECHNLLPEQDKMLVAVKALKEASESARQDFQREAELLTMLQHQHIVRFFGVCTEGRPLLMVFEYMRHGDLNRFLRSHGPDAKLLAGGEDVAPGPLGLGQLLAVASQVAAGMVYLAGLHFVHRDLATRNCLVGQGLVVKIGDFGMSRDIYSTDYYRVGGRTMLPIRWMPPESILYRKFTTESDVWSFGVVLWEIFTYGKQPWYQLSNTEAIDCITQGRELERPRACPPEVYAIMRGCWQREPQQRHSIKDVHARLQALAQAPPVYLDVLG

IC50 [nM]	Structure (SMILES)
4.4	NC(=O)Cc1ccc2c(NC(=O)c3cc(-c4ncccn4)c(C(F)(F)F)cc3F)n(-c3ccccc3)nc2c1 [Compound 94, N-(6-(2-Amino-2-oxoethyl)-2-phenyl-2H-indazol-3-yl)-2-fluoro-5-(pyrimidin-2-yl)-4-(trifluoromethyl)benzamide]
0.63	Cn1ccc(-c2cc(C(=O)Nc3c4ncc(C(N)=O)cc4nn3-c3ccccc3)c(F)cc2C(F)(F)F)n1 [Compound 87, 3-({[2-fluoro-5-(1-methyl-1H-pyrazol-3-yl)-4-(trifluoromethyl)phenyl]carbonyl}amino)-2-phenyl-2H-pyrazolo[4,3-b]pyridine-6-carboxamide]
2.2	O=C(Nc1c2ccc(CCO)cc2nn1-c1ccccc1)c1cc(-c2ncccn2)c(C(F)(F)F)cc1F [Compound 60, 2-Fluoro-N-(6-(2-hydroxyethyl)-2-phenyl-2H-indazol-3-yl)-5-(pyrimidin-2-yl)-4-(trifluoromethyl)benzamide]
52	Cc1ccccc1-n1nc2cc(C(N)=O)cnc2c1NC(=O)c1cc(-c2ncccn2)c(C(F)(F)F)cc1F [Compound 91, 3-({[2-fluoro-5-pyrimidin-2-yl-4-(trifluoromethyl)phenyl]carbonyl}amino)-2-(2-methylphenyl)-2H-pyrazolo[4,3-b]pyridine-6-carboxamide]
36	NC(=O)c1cc2nn(-c3ccccc3)c(NC(=O)c3cc(-c4ncccn4)c(C(F)(F)F)cc3F)c2cn1 [Compound 76, 3-(2-Fluoro-5-(pyrimidin-2-yl)-4-(trifluoromethyl)benzamido)-2-phenyl-2H-pyrazolo[4,3-c]pyridine-6-carboxamide]
6.9	O=C(Nc1c2cc(C(O)C(F)F)ccc2nn1-c1ccccc1)c1cc(-c2ncccn2)c(C(F)(F)F)cc1F (single isomer, unassigned; isomer a) [Compound 58, (R or S)-N-[5-(2,2-difluoro-1-hydroxyethyl)-2-phenyl-2H-indazol-3-yl]-2-fluoro-5-pyrimidin-2-yl-4-(trifluoromethyl)benzamide, isomer A]
6.5	Cn1ccc(-c2cc(C(=O)Nc3c4ccc(CNCCO)cc4nn3-c3ccccc3)c(F)cc2C(F)(F)F)n1 [Compound 72, 2-fluoro-N-(6-{[(2-hydroxyethyl)amino]methyl}-2-phenyl-2H-indazol-3-yl)-5-(1-methyl-1H-pyrazol-3-yl)-4-(trifluoromethyl)benzamide]
3.1	O=C(Nc1c2cc(CCO)ccc2nn1-c1ccccc1)c1cc(-c2ncccn2)c(C(F)(F)F)cc1F [Compound 61, 2-fluoro-N-[5-(2-hydroxyethyl)-2-phenyl-2H-indazol-3-yl]-5-pyrimidin-2-yl-4-(trifluoromethyl)benzamide]
0.57	Cn1ccc(-c2cc(C(=O)Nc3c4ccc(C(N)=O)cc4nn3-c3ccccc3)c(F)cc2C(F)(F)F)n1 [Compound 74, 3-(2-Fluoro-5-(1-methyl-1H-pyrazol-3-yl)-4-(trifluoromethyl)benzamido)-2-phenyl-2H-indazole-6-carboxamide]
2.7	Cn1ccc(-c2cc(C(=O)Nc3c4ccc(C(N)=O)cc4nn3-c3ccccc3)ccc2C(F)(F)F)n1 [Compound 82, 3-({[3-(1-methyl-1H-pyrazol-3-yl)-4-(trifluoromethyl)phenyl]carbonyl}amino)-2-phenyl-2H-indazole-6-carboxamide]
0.64	Cn1ccc(-c2cc(C(=O)Nc3c4cccc(CC(N)=O)c4nn3-c3ccccc3)c(F)cc2C(F)(F)F)n1 [Compound 95, N-(7-(2-Amino-2-oxoethyl)-2-phenyl-2H-indazol-3-yl)-2-fluoro-5-(1-methyl-1H-pyrazol-3-yl)-4-(trifluoromethyl)benzamide]
11	O=C(NCCO)c1ccc2c(NC(=O)c3cc(-c4ncccn4)c(C(F)(F)F)cc3F)n(-c3ccccc3)nc2c1 [Compound 92, 3-({[2-fluoro-5-pyrimidin-2-yl-4-(trifluoromethyl)phenyl]carbonyl}amino)-N-(2-hydroxyethyl)-2-phenyl-2H-indazole-6-carboxamide]
3.3	NC(=O)c1cnc2c(NC(=O)c3cc(-c4ccccn4)c(C(F)(F)F)cc3Cl)n(-c3ccccc3)nc2c1 [Compound 85, 3-({[2-chloro-5-pyridin-2-yl-4-(trifluoromethyl)phenyl]carbonyl}amino)-2-phenyl-2H-pyrazolo[4,3-b]pyridine-6-carboxamide]
11	Cn1ccc(-c2cc(C(=O)Nc3c4cc(C(N)=O)ccc4nn3-c3ccccc3)ccc2C(F)(F)F)n1 [Compound 79, 3-({[3-(1-methyl-1H-pyrazol-3-yl)-4-(trifluoromethyl)phenyl]carbonyl}amino)-2-phenyl-2H-indazole-5-carboxamide]
11	O=C(CO)NCc1ccc2c(NC(=O)c3cc(-c4ncccn4)c(C(F)(F)F)cc3F)n(-c3ccccc3)nc2c1 [Compound 98, 2-Fluoro-N-(6-((2-hydroxyacetamido)methyl)-2-phenyl-2H-indazol-3-yl)-5-(pyrimidin-2-yl)-4-(trifluoromethyl)benzamide]

More lines, now with the values behind:

Structure (SMILES)	IC50 [nM]
O=C(Nc1c2cc(CO)ccc2nn1-c1ccccc1)c1cc(-c2ncccn2)c(C(F)(F)F)cc1F [Compound 12, 2-fluoro-N-[5-(hydroxymethyl)-2-phenyl-2H-indazol-3-yl]-5-pyrimidin-2-yl-4-(trifluoromethyl)benzamide]	2.6
O=C(Nc1c2ccc(CO)cc2nn1-c1ccccc1)c1cc(-c2ncccn2)c(C(F)(F)F)cc1F [Compound 13, 2-fluoro-N-[6-(hydroxymethyl)-2-phenyl-2H-indazol-3-yl]-5-pyrimidin-2-yl-4-(trifluoromethyl)benzamide]	3.8
CC(O)c1ccc2nn(-c3ccccc3)c(NC(=O)c3ccc(C(F)(F)F)c(-c4ccn(C)n4)c3)c2c1 (single isomer, unassigned; isomer b) [Compound 24, (R or S)-N-[5-(1-hydroxyethyl)-2-phenyl-2H-indazol-3-yl]-3-(1-methyl-1H-pyrazol-3-yl)-4-(trifluoromethyl)benzamide, isomer B]	2.4
CC(O)c1ccc2c(NC(=O)c3cc(-c4ncccn4)c(C(F)(F)F)cc3Cl)n(-c3ccccc3)nc2c1 (single isomer, unassigned; isomer a) [Compound 37, (R or S)-2-chloro-N-[6-(1-hydroxyethyl)-2-phenyl-2H-indazol-3-yl]-5-pyrimidin-2-yl-4-(trifluoromethyl)benzamide, isomer A]	4.4
O=C(Nc1c2cc(CO)ncc2nn1-c1ccccc1)c1cc(-c2ncccn2)c(C(F)(F)F)cc1F [Compound 11, 2-Fluoro-N-(5-(hydroxymethyl)-2-phenyl-2H-pyrazolo[3,4-c]pyridin-3-yl)-5-(pyrimidin-2-yl)-4-(trifluoromethyl)benzamide]	20
CC(O)c1cnc2c(NC(=O)c3cc(-c4ncccn4)c(C(F)(F)F)cc3Cl)n(-c3ccccc3)nc2c1 (single isomer, unassigned; isomer b) [Compound 36, (R or S)-2-chloro-N-[6-(1-hydroxyethyl)-2-phenyl-2H-pyrazolo[4,3-b]pyridin-3-yl]-5-pyrimidin-2-yl-4-(trifluoromethyl)benzamide, isomer B]	2.4
O=C(Nc1c2ncccc2nn1-c1cccc(CO)c1)c1cc(-c2ncccn2)c(C(F)(F)F)cc1F [Compound 3, 2-Fluoro-N-(2-(3-(hydroxymethyl)phenyl)-2H-pyrazolo[4,3-b]pyridin-3-yl)-5-(pyrimidin-2-yl)-4-(trifluoromethyl)benzamide]	122
Cn1ccc(-c2cc(C(=O)Nc3c4cccnc4nn3-c3ccccc3)c(F)cc2C(F)(F)F)n1 [Compound 6, 2-fluoro-5-(1-methyl-1H-pyrazol-3-yl)-N-(2-phenyl-2H-pyrazolo[3,4-b]pyridin-3-yl)-4-(trifluoromethyl)benzamide]	6.1
CC(O)c1ccc2nn(-c3ccccc3)c(NC(=O)c3ccc(C(F)(F)F)c(-c4ccn(C)n4)c3)c2c1 (single isomer, unassigned; isomer a) [Compound 23, (R or S)-N-[5-(1-hydroxyethyl)-2-phenyl-2H-indazol-3-yl]-3-(1-methyl-1H-pyrazol-3-yl)-4-(trifluoromethyl)benzamide, isomer A]	3.7
CC(C)(O)c1ccc2c(NC(=O)c3cc(-c4ncccn4)c(C(F)(F)F)cc3Cl)n(-c3ccccc3)nc2c1 [Compound 46, 2-chloro-N-[6-(1-hydroxy-1-methylethyl)-2-phenyl-2H-indazol-3-yl]-5-pyrimidin-2-yl-4-(trifluoromethyl)benzamide]	1.7
CC(O)c1ccc2c(NC(=O)c3cc(-c4ncccn4)c(C(F)(F)F)cc3F)n(-c3ccccc3)nc2c1 (single isomer, unassigned) [Compound 19, (R and S)-2-Fluoro-N-(6-(1-hydroxyethyl)-2-phenyl-2H-indazol-3-yl)-5-(pyrimidin-2-yl)-4-(trifluoromethyl)benzamide, isomers A and B]	1.9
O=C(Nc1c2ncccc2nn1-c1ccccc1)c1cc(-c2ncccn2)c(C(F)(F)F)cc1F [Compound 1, 2-Fluoro-N-(2-phenyl-2H-pyrazolo[4,3-b]pyridin-3-yl)-5-pyrimidin-2-yl-4-(trifluoromethyl)benzamide]	5.2
O=C(Nc1c2[nH]c(=O)ccc2nn1-c1ccccc1)c1cc(-c2ncccn2)c(C(F)(F)F)cc1F [Compound 2, 2-Fluoro-N-(5-oxo-2-phenyl-4,5-dihydro-2H-pyrazolo[4,3-b]pyridin-3-yl)-5-(pyrimidin-2-yl)-4-(trifluoromethyl)benzamide]	6
CC(O)c1ccc2c(NC(=O)c3cc(-c4ncccn4)c(C(F)(F)F)cc3F)n(-c3ccccc3)nc2c1 (single isomer, unassigned) [Compound 20, (R and S)-2-Fluoro-N-(6-(1-hydroxyethyl)-2-phenyl-2H-indazol-3-yl)-5-(pyrimidin-2-yl)-4-(trifluoromethyl)benzamide, isomers A and B]	2.9
O=C(Nc1c2cc(C3(O)CC3)ccc2nn1-c1ccccc1)c1cc(-c2ncccn2)c(C(F)(F)F)cc1F [Compound 50, 2-Fluoro-N-(5-(1-hydroxycyclopropyl)-2-phenyl-2H-indazol-3-yl)-5-(pyrimidin-2-yl)-4-(trifluoromethyl)benzamide]	1.6
